In patent publication US20260374766A1, “METHODS FOR TREATING CANCER” (Antares Therapeutics, Inc., priority 2022, published 2026):
Like-named read-outs stand apart in the source and are kept apart here.

Columns and labels:
[1] = target: T1, p53 Y220C mutant protein (amino acid residues 94-293) (Homo sapiens, UniProt P04637, Y220C); assay: Surface Plasmon Resonance (SPR) assay, Kd_kinetic; assay type: binding; details: read-out: SPR P53 Y220C KD kinetic
T1 construct: p53 Y220C mutant protein (amino acid residues 94-293)
Summary of the method: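 Surface plasmon resonance is run at 16 or 20 °C in 50 mM Tris pH 7.5 containing 100 mM NaCl, 1 mM DTT, 0.01% Brij35, 0.05% Tween-20 and 1% DMSO. Association and dissociation data are fitted to a 1:1 model.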

[2] = target: T1, p53 Y220C mutant protein (amino acid residues 94-293); assay: Thermal Shift Assay (TSA), dTM; assay type: binding; details: thermal shift; for ΔTm at 10 µM: 10 uM compound, read-out: TSA P53 Y220C dTM (10 uM); for ΔTm at 100 µM: 100 uM compound, read-out: TSA P53 Y220C dTM (100 uM)
Summary of the method: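 First, the mutant DNA-binding domain (5 μM) was preincubated 3 hours at 20 °C with compound at 10 μM or 100 μM. Next, the sample was heated from 30 °C to 50 °C at 0.03 °C/second in the presence of Sypro Orange. Finally, TM was obtained from a two-state Boltzmann fit.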

p53 Y220C = p53 Y220C (Homo sapiens, UniProt P04637, Y220C); assay: Luciferase Reporter Assay (Luc), p53 response element, NClH1299 cells with inducible p53 Y220C; assay type: cell-based; details: luciferase reporter, NClH1299 inducible p53 Y220C, 6 hour; for Emax: 10 uM tool compound as positive control; for AC50: read-out: Luc P53 Y220C AC50
Summary of the method: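 Luciferase activity is measured directly after One-Glo addition and a 5-minute room-temperature shake. Before that, cells plated at 5,000 per well receive doxycycline at 0.5 ug/mL for 24 hours, followed by compound for 6 hours.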

NUGC3 p53 Y220C = assay: Cell Proliferation Assay (CellTiter-Glo, CTG), NUGC3 p53 Y220C; assay type: cell-based; details: Homo sapiens, NUGC-3, 120 h, CellTiter-Glo, NUGC3 p53 Y220C, 5 days
Summary of the method: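 Tet-One inducible p53 Y220C or R273H constructs were stably introduced into NCI-H1299 by lentiviral transduction; NUGC3 was used as is. Cells (250-500 per well) were exposed to compound for 5 days, then CellTiter-Glo was added for 10 min at room temperature and IC50 was calculated from luminescence.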

H1299 p53 Y220C = assay: Cell Proliferation Assay (CellTiter-Glo, CTG), H1299 p53 Y220C (NClH1299-inducible p53 Y220C); assay type: cell-based; details: Homo sapiens, NCI-H1299, 120 h, CellTiter-Glo, H1299 p53 Y220C, 5 days
Summary of the method: (§1)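 Cells seeded at 250-500 per well and exposed to compound for 5 days. Viability read by CellTiter-Glo luminescence after 10 min at room temperature; IC50 calculated. H1299 lines carry Tet-One inducible p53 mutant constructs introduced by lentiviral transduction.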

H1299 p53 R273H = assay: Cell Proliferation Assay (CellTiter-Glo, CTG), H1299 p53 R273H (NClH1299-inducible p53 R273H); assay type: cell-based; details: Homo sapiens, NCI-H1299, 120 h, CellTiter-Glo, H1299 p53 R273H, 5 days
Summary of the method: as §1

| SMILES | Kd ([1]; SPR, kinetic KD, p53 Y220C) [nM] | ΔTm at 10 µM [2] [°C] | ΔTm at 100 µM [2] [°C] | Emax (p53 Y220C) [%] | AC50 (p53 Y220C) [nM] | IC50 (H1299 p53 Y220C) [nM] | IC50 (H1299 p53 R273H) [µM] | Kd [1] [nM] | IC50 (NUGC3 p53 Y220C) [nM] |
| --- | --- | --- | --- | --- | --- | --- | --- | --- | --- |
| CNC(=O)c1ccc(OC)c(NCC#Cc2nc3c(N[C@@H]4CCN(C)C[C@@H]4F)cc(F)cn3c2SC(F)(F)F)c1 [Example 154, 3-{[3-(6-fluoro-8-{[(3S,4R)-3-fluoro-1-methylpiperidin-4-yl]amino}-3-[(trifluoromethyl)sulfanyl]imidazo[1,2-a]pyridin-2-yl)prop-2-yn-1-yl]amino}-4-methoxy-N-methylbenzamide] | < 10 | ≥ 10 | ≥ 10 | 70 to 80 | < 750 | < 750 | < 5 |  | < 750 |
| CNC(=O)c1ccc(NCC#Cc2cc3c(N[C@@H]4CCN(C)C[C@@H]4F)nccn3c2SC(F)(F)F)c(OC)c1 [Example 155, 4-{[3-(1-{[(3S,4R)-3-fluoro-1-methylpiperidin-4-yl]amino}-6-[(trifluoromethyl)sulfanyl]pyrrolo[1,2-a]pyrazin-7-yl)prop-2-yn-1-yl]amino}-3-methoxy-N-methylbenzamide; formic acid] |  | ≥ 10 | ≥ 10 | > 90 | < 750 | < 750 | 8 to 10 | < 10 | < 750 |
| CNC(=O)c1ccc(OC)c(NCC#Cc2cc3c(N[C@@H]4CCN(C)C[C@@H]4F)nccn3c2SC(F)(F)F)c1 [Example 156, 3-{[3-(1-{[(3S,4R)-3-fluoro-1-methylpiperidin-4-yl]amino}-6-[(trifluoromethyl)sulfanyl]pyrrolo[1,2-a]pyrazin-7-yl)prop-2-yn-1-yl]amino}-4-methoxy-N-methylbenzamide] | < 10 | ≥ 10 | ≥ 10 | > 90 | < 750 | < 750 | 8 to 10 |  | < 750 |
| CNC(=O)c1ccc(OC)c(NCC#Cc2nc3c(N[C@@H]4CCN(C)C[C@@H]4F)cccn3c2SC(F)(F)F)n1 [Example 158] |  | ≥ 10 | ≥ 10 | 80 to 90 | < 750 | < 750 | 5 to 8 | < 10 | < 750 |
| CNC(=O)c1ccc(C)c(NCC#Cc2nc3c(N[C@@H]4CCN(C)C[C@@H]4F)cccn3c2SC(F)(F)F)c1 [Example 160] | < 10 | ≥ 10 | ≥ 10 | > 90 | < 750 | < 750 | ≥ 10 |  | < 750 |
| CNC(=O)c1cnc(NCC#Cc2nc3c(N[C@@H]4CCN(C)C[C@@H]4F)cccn3c2SC(F)(F)F)n1C [Example 161] | 10 to 100 | 5 to 10 | ≥ 10 | < 70 | > 3000 | 1500 to 3000 | ≥ 10 |  | 1500 to 3000 |
| CNC(=O)c1cccc(NCC#Cc2nc3c(N[C@@H]4CCN(C)C[C@@H]4F)cccn3c2SC(F)(F)F)n1 [Example 162] | < 10 | ≥ 10 | ≥ 10 | 80 to 90 | < 750 | < 750 | ≥ 10 |  | < 750 |
| CNC(=O)c1ccc(NCC#Cc2nc3c(N[C@@H]4CCN(C)C[C@@H]4F)cccn3c2SC(F)(F)F)cc1 [Example 163] | < 10 | ≥ 10 | ≥ 10 | > 90 | < 750 | < 750 | ≥ 10 |  | < 750 |
| COc1cc(C(N)=O)ccc1NCC#Cc1nc2c(N[C@@H]3CCN(C)C[C@@H]3F)cccn2c1SC(F)(F)F [Example 165] | < 10 | ≥ 10 | ≥ 10 | > 90 | < 750 | < 750 | 8 to 10 |  | < 750 |
| COc1ccc(C(N)=O)nc1NCC#Cc1nc2c(N[C@@H]3CCN(C)C[C@@H]3F)cccn2c1SC(F)(F)F [Example 166] | < 10 | ≥ 10 | ≥ 10 | 80 to 90 | < 750 | < 750 | ≥ 10 |  | < 750 |
| CNC(=O)c1ccc(OC)c(NCC#Cc2nc3c(N[C@@H]4CCN(C)C[C@@H]4F)cccn3c2SC(F)F)c1 [Example 167] | < 10 | ≥ 10 | ≥ 10 | 80 to 90 | < 750 | < 750 | < 5 |  | < 750 |
| CNC(=O)c1cc(NCC#Cc2nc3c(N[C@@H]4CCN(C)C[C@@H]4F)cccn3c2SC(F)(F)F)c(OC)cc1F [Example 170] | < 10 | ≥ 10 | ≥ 10 | 80 to 90 | < 750 | < 750 | ≥ 10 |  | < 750 |
| CNC(=O)c1ccc(OC)c(NCC#Cc2nc3c(N[C@@H]4CN(C)C[C@@H]4F)cccn3c2SC(F)(F)F)n1 [Example 171] | < 10 | ≥ 10 | ≥ 10 | 70 to 80 | < 750 | < 750 | ≥ 10 |  | < 750 |
| CNC(=O)c1ccc(OC)c(NCC#Cc2nc3c(N[C@@H]4CNC[C@@H]4F)cccn3c2SC(F)(F)F)n1 [Example 172] | < 10 | ≥ 10 | ≥ 10 | 70 to 80 | < 750 | < 750 | 5 to 8 |  | < 750 |

Further lines, with some results ahead:

| Kd ([1]; SPR, kinetic KD, p53 Y220C) [nM] | ΔTm at 10 µM [2] [°C] | ΔTm at 100 µM [2] [°C] | Emax (p53 Y220C) [%] | AC50 (p53 Y220C) [nM] | IC50 (H1299 p53 Y220C) [nM] | IC50 (H1299 p53 R273H) [µM] | Kd [1] [nM] | SMILES | IC50 (NUGC3 p53 Y220C) [nM] |
| --- | --- | --- | --- | --- | --- | --- | --- | --- | --- |
| < 10 | ≥ 10 | ≥ 10 | 80 to 90 | < 750 | < 750 | ≥ 10 |  | CNC(=O)c1ccc(OC)c(NCC#Cc2nc3c(N[C@@H]4CN(C)C[C@@H]4F)cccn3c2SC(F)(F)F)c1 [Example 153] | < 750 |
| < 10 | ≥ 10 |  | > 90 | < 750 | < 750 | ≥ 10 |  | CNC(=O)c1ccc(F)c(NCC#Cc2nc3c(N[C@@H]4CCN(C)C[C@@H]4F)cccn3c2SC(F)(F)F)c1 [Example 159] | < 750 |
| < 10 | ≥ 10 | 5 to 10 | > 90 | 750 to 1500 | < 750 | ≥ 10 |  | CNC(=O)c1ccc(NCC#Cc2nc3c(N[C@H]4CCN(C)C(=O)C4)cccn3c2SC(F)(F)F)c(OC)c1 [Example 168] | < 750 |
| 10 to 100 | 5 to 10 | 5 to 10 | 70 to 80 | > 3000 | > 3000 | ≥ 10 |  | CNC(=O)c1ccc(NCC#Cc2nc3c(N[C@@H]4CCN(C)C(=O)C4)cccn3c2SC(F)(F)F)c(OC)c1 [Example 169] | > 3000 |
| 10 to 100 | 5 to 10 | 5 to 10 | 70 to 80 | 750 to 1500 | 750 to 1500 | 5 to 8 |  | CNC(=O)c1ccc(NCC#Cc2nc3c(NC4CC5(C4)CN(CC(F)F)C5)cccn3c2SC(F)(F)F)c(OC)c1 [Example 173] | 1500 to 3000 |
| < 10 | ≥ 10 | ≥ 10 | 80 to 90 | 1500 to 3000 | 1500 to 3000 | ≥ 10 |  | CNC(=O)c1ccc(NCC#Cc2nc3c(N[C@H]4CCNC(=O)C4)cccn3c2SC(F)(F)F)c(OC)c1 [Example 174] | 750 to 1500 |
| 10 to 100 | 5 to 10 | 5 to 10 | < 70 | > 3000 | > 3000 | ≥ 10 |  | CNC(=O)c1ccc(NCC#Cc2nc3c(N[C@@H]4CCNC(=O)C4)cccn3c2SC(F)(F)F)c(OC)c1 [Example 175] | > 3000 |
| 10 to 100 | 5 to 10 | ≥ 10 | 70 to 80 | 750 to 1500 | 750 to 1500 | 5 to 8 |  | CNC(=O)c1ccc(NCC#Cc2nc3c(N[C@@H]4CCn5cncc5C4)cccn3c2SC(F)(F)F)c(OC)c1 [Example 176] | 1500 to 3000 |
